Test results taken from US20230416199A1, “INHIBITORS OF AMINO ACID TRANSPORT” (ICAHN SCHOOL OF MEDICINE AT MOUNT SINAI, priority 2020, published 2023).
Where two headings read alike, the source gives them in different places.

How the values were obtained:
Type in all cases: cell-based
hASCT1 = target: T1, hASCT1 (Homo sapiens, UniProt P43007); assay: Electrophysiology (whole-cell current recording) of transfected HEK293 cells, hASCT1
T1 construct: expressed in transfected cells; host or cells: HEK293 (ATCC CRL-11268), transient transfection
T1 sequence (P43007 1-532): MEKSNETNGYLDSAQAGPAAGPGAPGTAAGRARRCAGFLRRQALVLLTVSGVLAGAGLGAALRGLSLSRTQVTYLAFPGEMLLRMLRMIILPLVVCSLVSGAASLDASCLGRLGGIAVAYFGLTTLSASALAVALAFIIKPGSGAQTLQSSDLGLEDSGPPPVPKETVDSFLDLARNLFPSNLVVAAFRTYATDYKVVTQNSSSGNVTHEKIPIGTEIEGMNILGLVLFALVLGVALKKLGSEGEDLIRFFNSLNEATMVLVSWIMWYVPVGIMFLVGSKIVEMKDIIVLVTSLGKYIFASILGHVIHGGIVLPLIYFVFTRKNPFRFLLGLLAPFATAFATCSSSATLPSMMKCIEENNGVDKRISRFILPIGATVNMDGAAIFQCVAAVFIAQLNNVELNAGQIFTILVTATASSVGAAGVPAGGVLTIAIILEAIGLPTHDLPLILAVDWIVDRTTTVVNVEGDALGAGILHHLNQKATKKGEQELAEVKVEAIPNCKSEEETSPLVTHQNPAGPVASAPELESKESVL
Procedure: (§1) Human embryonic kidney 293 (HEK293, ATCC CRL-11268) cells were cultured in DMEM media supplemented with 10% (v v) fetal bovine serum (FBS), 2 mM glutamine, 1% penicillin streptomycin solution, 1 mM sodium pyruvate and non-essential amino acids. Cells were maintained at 37° C. in a fully humidified atmosphere containing 5% CO2. rASCT2, hASCT2, hASCT1, EAAT1, EAAT2, EAAC1, EAAT5 and YFP complementary DNAs were each used to transiently transfect HEK293 using POLYPLUS Jet-prime transfection reagent. Cells were analyzed using electrophysiological techniques 24-40 hours after transfection.
(§2) Stock solutions of inhibitor was prepared in dimethyl sulfoxide (DMSO) up to 100 mM. Dilutions to working concentrations were made using external buffer. […] For rASCT2, hASCT2 and hASCT1, external buffer contained 140 mM NaCl, 2 mM MgCl2, 2 mM CaCl2), and 10 mM HEPES, pH 7.40 while internal pipette solution comprised of 130 mM NaSCN, 2 mM MgCl2, 10 mM EGTA, 10 mM HEPES and 10 mM alanine, pH 7.40. For specificity experiments with EAAT1, EAAT2, EAAC1 and EAAT5, internal solution contained 10 mM glutamate instead of alanine. Compounds were applied to HEK293 cells expressing DNA of interest suspended from a current recording electrode in whole cell configuration through a rapid solution exchange device. Cells are immersed in external buffer bath used to dissolve the inhibitors. The open pipette resistance was between 3 and 6 MΩ. Series resistance was not compensated in these experiments due to relatively small currents. Currents traces were recorded using an Adams and List EPC7 amplifier and digitized using a Molecular Devices Digidata A/D converter.
(§3) Linear and nonlinear curve fitting of the experimental data were analyzed using MicroCal Origin software. Nonlinear dose-response relationships were fitted with a Michaelis-Menten-like equation to obtain apparent Ki values in the absence of substrate (see TABLE 2 for Ki values). The figures show representative current traces and dose-response curves for hACST2 and rASCT2, used to obtain Ki values in TABLE 2 for compound SN 40. At least four experiments were performed with at least three different cells. Error bars in all graphs, e.g., in FIG. 1B and FIG. 1C and tables (Ki values) represent mean±SD.

rASCT2 = target: T2, rASCT2 (Rattus norvegicus, UniProt D3ZJ25); assay: Electrophysiology (whole-cell current recording) of transfected HEK293 cells, rASCT2
T2 construct: expressed in transfected cells; host or cells: HEK293 (ATCC CRL-11268), transient transfection
T2 sequence (D3ZJ25 1-555): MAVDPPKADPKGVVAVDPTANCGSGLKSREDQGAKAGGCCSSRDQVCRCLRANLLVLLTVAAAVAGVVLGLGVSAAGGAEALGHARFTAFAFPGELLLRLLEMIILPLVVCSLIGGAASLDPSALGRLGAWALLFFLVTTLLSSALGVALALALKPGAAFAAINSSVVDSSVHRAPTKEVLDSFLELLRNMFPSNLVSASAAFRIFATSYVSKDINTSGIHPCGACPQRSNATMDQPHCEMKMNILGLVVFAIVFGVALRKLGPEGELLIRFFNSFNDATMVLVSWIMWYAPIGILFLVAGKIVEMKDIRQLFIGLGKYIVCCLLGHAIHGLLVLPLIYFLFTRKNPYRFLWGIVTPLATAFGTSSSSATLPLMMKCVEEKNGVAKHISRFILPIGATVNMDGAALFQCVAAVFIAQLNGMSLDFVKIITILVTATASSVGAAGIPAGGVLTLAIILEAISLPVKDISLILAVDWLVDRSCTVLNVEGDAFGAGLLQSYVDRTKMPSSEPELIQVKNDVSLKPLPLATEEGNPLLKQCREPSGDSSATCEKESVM
Procedure: as §1, §2, §3

hASCT2 [1] = target: T3, hASCT2 (Homo sapiens, UniProt Q15758); assay: Electrophysiology (whole-cell current recording) of transfected HEK293 cells, hASCT2
T3 construct: expressed in transfected cells; host or cells: HEK293 (ATCC CRL-11268), transient transfection
T3 sequence (Q15758 1-541): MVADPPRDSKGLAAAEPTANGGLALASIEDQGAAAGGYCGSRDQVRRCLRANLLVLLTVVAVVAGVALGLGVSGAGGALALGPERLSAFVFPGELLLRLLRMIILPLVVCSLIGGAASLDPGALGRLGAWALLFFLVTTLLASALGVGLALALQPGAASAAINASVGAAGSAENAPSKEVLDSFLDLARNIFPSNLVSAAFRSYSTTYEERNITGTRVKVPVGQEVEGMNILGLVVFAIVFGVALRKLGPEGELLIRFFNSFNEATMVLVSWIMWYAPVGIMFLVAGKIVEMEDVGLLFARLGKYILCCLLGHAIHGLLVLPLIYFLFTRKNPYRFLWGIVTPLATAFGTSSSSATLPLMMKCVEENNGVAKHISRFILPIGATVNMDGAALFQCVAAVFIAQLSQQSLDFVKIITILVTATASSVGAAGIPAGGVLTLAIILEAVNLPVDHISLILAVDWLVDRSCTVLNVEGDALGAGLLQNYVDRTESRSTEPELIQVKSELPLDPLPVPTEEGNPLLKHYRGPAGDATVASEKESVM
Procedure: as §1, §2, §3

hASCT2 [2] = target: T3, hASCT2; assay: Competition experiment with alanine, hASCT2; details: 1 mM ala, first entry of the cell; for Ki: read-out: Competition Expt (h/rASCT2 Ki): hASCT2 Ki
EAAT1 = target: T4, EAAT1 (Homo sapiens, UniProt P43003); assay: Electrophysiology specificity experiment in transfected HEK293 cells, EAAT1; details: apparent Ki, HEK293, internal solution 10 mM glutamate, mean ± SD
T4 construct: expressed in transfected cells; host or cells: HEK293 (ATCC CRL-11268), transient transfection
T4 sequence (P43003 whole entry, species assumed): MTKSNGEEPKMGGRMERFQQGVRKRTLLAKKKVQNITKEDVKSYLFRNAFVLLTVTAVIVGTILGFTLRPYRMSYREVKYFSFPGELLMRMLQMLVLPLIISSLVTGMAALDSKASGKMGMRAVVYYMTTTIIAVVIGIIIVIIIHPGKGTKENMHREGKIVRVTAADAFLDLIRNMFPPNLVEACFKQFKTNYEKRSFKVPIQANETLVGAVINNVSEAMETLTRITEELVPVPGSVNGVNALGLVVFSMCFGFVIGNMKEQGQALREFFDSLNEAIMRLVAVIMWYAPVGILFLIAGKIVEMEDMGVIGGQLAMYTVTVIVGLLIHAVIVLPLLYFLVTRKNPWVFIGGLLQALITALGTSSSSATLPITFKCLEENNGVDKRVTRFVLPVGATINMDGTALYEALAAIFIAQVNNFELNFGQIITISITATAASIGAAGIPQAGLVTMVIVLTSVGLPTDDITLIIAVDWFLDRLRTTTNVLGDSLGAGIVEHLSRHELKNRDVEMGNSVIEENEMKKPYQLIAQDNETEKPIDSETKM
Procedure: as §1, §2, §3

EAAT2 = target: T5, EAAT2 (Homo sapiens, UniProt P43004); assay: Electrophysiology specificity experiment in transfected HEK293 cells, EAAT2; details: Table 3, dihydroxyproline derivatives; read-out: Ki All DNA: EAAT2
T5 construct: expressed in transfected cells; host or cells: HEK293 (ATCC CRL-11268), transient transfection
T5 sequence (P43004 whole entry, species assumed): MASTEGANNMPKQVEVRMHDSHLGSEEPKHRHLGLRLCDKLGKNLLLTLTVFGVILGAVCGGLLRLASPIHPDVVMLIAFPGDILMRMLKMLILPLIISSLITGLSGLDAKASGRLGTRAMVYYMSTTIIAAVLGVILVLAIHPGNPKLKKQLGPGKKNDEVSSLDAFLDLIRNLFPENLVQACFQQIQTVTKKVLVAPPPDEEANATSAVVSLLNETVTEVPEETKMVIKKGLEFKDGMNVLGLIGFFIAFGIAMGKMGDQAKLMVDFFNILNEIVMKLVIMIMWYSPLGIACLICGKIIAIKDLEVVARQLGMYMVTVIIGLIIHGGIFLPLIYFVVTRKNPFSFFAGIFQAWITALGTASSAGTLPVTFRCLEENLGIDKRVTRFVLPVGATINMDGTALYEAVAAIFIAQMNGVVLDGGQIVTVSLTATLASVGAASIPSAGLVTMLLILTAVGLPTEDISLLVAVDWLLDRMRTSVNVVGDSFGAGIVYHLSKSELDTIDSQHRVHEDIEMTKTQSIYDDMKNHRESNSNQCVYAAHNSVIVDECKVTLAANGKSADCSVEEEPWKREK
Procedure: as §1, §2, §3

[3] = apparent Ki in the absence of substrate, HEK293, mean ± SD, read-out: Ki hASCT1
[4] = apparent Ki in the absence of substrate, HEK293, mean ± SD, read-out: Ki rASCT2
[5] = apparent Ki in the absence of substrate, HEK293, mean ± SD, read-out: Ki hASCT2
[6] = Table 3, dihydroxyproline derivatives, read-out: Ki All DNA: hASCT1
[7] = Table 3, dihydroxyproline derivatives, read-out: Ki All DNA: rASCT2
[8] = Table 3, dihydroxyproline derivatives, read-out: Ki All DNA: hASCT2

| Ki (rASCT2; [4]) | Ki (hASCT2 [1]; [5]) | Ki (hASCT1; [6]) | Ki (rASCT2; [7]) | Ki (hASCT2 [1]; [8]) | SMILES | also measured |
| --- | --- | --- | --- | --- | --- | --- |
| 74.7 ± 18.3 µM | 103 ± 11.2 µM | – | – | – | O=C(Nc1cccc(CN[C@@H]2CN[C@H](C(=O)O)C2)c1)c1ccccc1 [SN 42] | Ki (hASCT1; [3]): 172 ± 24 µM |
| – | – | 6.61 µM | 3.87 µM | 4.55 µM | O=C(OC[C@@]1(O)CN[C@H](C(=O)O)C1)c1ccc(-c2ccccc2)cc1 [SN57] | Competition Expt % block (given as a decimal): hASCT2 (hASCT2 [2]): full; Ki (hASCT2 [2]): 40 µM |
| – | – | 1.17 µM | 3.31 µM | 8.07 µM | O=C(O[C@]1(CO)CN[C@H](C(=O)O)C1)c1ccc(-c2ccc(C(F)(F)F)cc2)cc1 [SN75] | – |
| 2.79 ± 0.7 µM | 3.01 ± 0.5 µM | – | – | – | O=C(O[C@@H]1CN[C@H](C(=O)O)C1)c1ccc(-c2ccccn2)cc1 [SN 18] | Ki (hASCT1; [3]): 7.01 ± 2.1 µM; Ki (EAAT1): 12.4 ± 1 µM |
| – | – | 12.2 µM | 20 µM | 31.9 µM | O=C(O[C@]1(CO)CN[C@H](C(=O)O)C1)c1ccc(Oc2ccccc2)cc1 [SN76] | – |
| – | – | – | 8.03 µM | 4.25 µM | O=C(O[C@]1(CO)CN[C@H](C(=O)O)C1)c1ccc(-c2ccccc2)cc1 [SN73] | Ki (EAAT2): 21.4 µM; Competition Expt % block (given as a decimal): hASCT2 (hASCT2 [2]): full; Ki (hASCT2 [2]): 22.3 µM |

Further lines, the compound ahead of its results:

| SMILES | Ki (rASCT2; [4]) | Ki (hASCT2 [1]; [5]) | Ki (hASCT1; [6]) | Ki (rASCT2; [7]) | Ki (hASCT2 [1]; [8]) | also measured |
| --- | --- | --- | --- | --- | --- | --- |
| O=C(Nc1ccc(CN[C@@H]2CN[C@H](C(=O)O)C2)cc1)c1ccccc1 [SN 43] | 27.2 ± 1.9 µM | 33.6 ± 2.5 µM | – | – | – | Ki (hASCT1; [3]): 20 ± 2.3 µM |
| N[C@H](C(=O)O)[C@H](O)COC(=O)c1ccc(-c2ccccc2)cc1 [SN 35] | 4.83 ± 1 µM | 0.84 ± 0.2 µM | – | – | – | – |
| N[C@H](C(=O)O)[C@H](CO)OC(=O)c1ccc(-c2ccccc2)cc1 [SN 36] | 6.02 ± 1.8 µM | 6.38 ± 1.2 µM | – | – | – | – |
| N[C@@H](COC(=O)c1ccc(C(=O)c2ccccc2)cc1)C(=O)O [SN 26] | 22 ± 4.5 µM | – | – | – | – | – |
| O=C(OC[C@@]1(O)CN[C@H](C(=O)O)C1)c1ccc(C(O)c2ccccc2)cc1 (some centres unmarked) [SN63] | – | – | 93 µM | 232 µM | 405 µM | – |
| O=C(O[C@@H]1CN[C@H](C(=O)O)C1)c1ccc(Oc2ccccc2)cc1 [SN 20] | 3.68 ± 0.7 µM | 4.17 ± 0.5 µM | – | – | – | Ki (hASCT1; [3]): 5.71 ± 0.9 µM |
| O=C(OC[C@@]1(O)CN[C@H](C(=O)O)C1)c1ccc(C(=O)c2ccccc2)cc1 [SN61] | – | – | 18.6 µM | 88.6 µM | 108 µM | – |
| N[C@@H](COC(=O)c1ccc(-c2cccc(F)c2)cc1F)C(=O)O [SN 24] | 19.7 ± 3.1 µM | – | – | – | – | – |
| N[C@H](C(=O)O)[C@@H](CO)OC(=O)c1ccc(-c2ccccc2)cc1 [SN 37] | 7.46 ± 0.9 µM | 2.71 ± 0.5 µM | – | – | – | – |
| O=C(O)[C@@H]1C[C@H](NCc2ccc(-c3ccc(C(F)(F)F)cc3)cc2)CN1 [SN 41] | – | 1.15 ± 0.9 µM | – | – | – | – |
